This is an account of results in patent US10336739B2, “4-hydroxy-3-(heteroaryl)pyridine-2-one APJ agonists” (BRISTOL-MYERS SQUIBB COMPANY, priority 2015, dated 2019).

This test deals with human APJ receptor (Homo sapiens (Human), UniProt P35414). The test can be described thus: Intracellular cAMP accumulation assay (APJ hcAMP, HTRF). The following applies: HEK293 cells stably expressing human APJ receptor, inhibition of forskolin-mediated cAMP production. The format is cell-based. In short, it runs like this: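 cAMP inhibition was quantified by HTRF against a cAMP standard curve, with EC50 fitted to a variable-slope sigmoidal curve. Compounds acted on 5,000 APJ-stable HEK293 cells for 30 minutes at room temperature alongside 2 μM forskolin and […] IBMX. Detection reagents were incubated 60 min.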
Sequence of human APJ receptor (P35414 whole entry): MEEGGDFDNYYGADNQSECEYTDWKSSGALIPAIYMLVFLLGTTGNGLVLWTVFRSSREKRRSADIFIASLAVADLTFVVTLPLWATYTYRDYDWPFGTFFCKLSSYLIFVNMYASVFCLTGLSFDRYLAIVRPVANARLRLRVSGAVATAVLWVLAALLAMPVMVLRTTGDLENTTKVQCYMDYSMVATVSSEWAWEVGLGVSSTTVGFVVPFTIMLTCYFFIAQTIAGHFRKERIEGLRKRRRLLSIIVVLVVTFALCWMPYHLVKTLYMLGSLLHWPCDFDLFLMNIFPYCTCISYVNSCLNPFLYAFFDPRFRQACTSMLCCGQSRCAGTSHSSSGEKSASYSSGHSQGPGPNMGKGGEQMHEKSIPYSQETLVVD
(cAMP levels reflect the balance of adenylyl cyclase and phosphodiesterase activity.)

[1] abbreviates: read-out: hAPJ cAMP EC50 Potency range.

The structures appear in SMILES notation. Read-outs that look alike come from different tables or passages of the source.

In the case of `COc1cccc(OC)c1-c1c(C2CC2)nc(O)c(-c2nnc(Cc3csc(C)n3)o2)c1O` [Example 94, 6-cyclopropyl-5-(2,6-dimethoxyphenyl) 3-{5-[(2-methyl-1,3-thiazol-4-yl)methyl]-1,3,4-oxadiazol-2-yl}pyridine-2,4-diol], the EC50 under setting [1] lay in the range of 10 to 100 nM.
Same read-out and setting: the figure for `COc1cccc(OC)c1-c1c(C2CC2)nc(O)c(-c2nnc(Cc3nc(-c4ccccn4)no3)o2)c1O` [Example 95, 6-cyclopropyl-5-(2,6-dimethoxyphenyl)-3-(5-{[3-(pyridin-2-yl)-1,2,4-oxadiazol-5-yl]methyl}-1,3,4-oxadiazol-2-yl)pyridine-2,4-diol] is 0.01 to 10 nM; for `CCCCc1nc(O)c(-c2nnc(CC(=O)OCC)o2)c(O)c1-c1c(OC)cccc1OC` [Example 96, ethyl 2-{5-[6-butyl-5-(2,6-dimethoxyphenyl)-2,4-dihydroxypyridin-3-yl]-1,3,4-oxadiazol-2-yl}acetate] it is 10 to 100 nM; for `CCCCc1nc(O)c(-c2nnc(CN3C(=O)CN(C)C3=O)o2)c(O)c1-c1c(OC)cccc1OC` [Example 98, 3-({5-[6-butyl-5-(2,6-dimethoxyphenyl)-2,4-dihydroxypyridin-3-yl]-1,3,4-oxadiazol-2-yl}methyl)-1-methyl-imidazolidine-2,4-dione] it is 0.01 to 10 nM.
Turning to `CCCCc1nc(O)c(-c2nnc(Cc3cccc(F)c3)o2)c(O)c1-c1c(OC)cccc1OC` [Example 99, 6-butyl-5-(2,6-dimethoxyphenyl)-3-{5-[(3-fluorophenyl)methyl]-1,3,4-oxadiazol-2-yl}pyridine-2,4-diol], the EC50 under setting [1] is 0.01 to 10 nM.
Still for that read-out and setting: the figure for `CCCCc1nc(O)c(-c2nnc(CN3CCCCC3)o2)c(O)c1-c1c(OC)cccc1OC` [Example 100, 6-butyl-5-(2,6-dimethoxyphenyl)-3-[5-(piperidin-1-ylmethyl)-1,3,4-oxadiazol-2-yl]pyridine-2,4-diol] is 10 to 100 nM.
Same read-out and setting: the figure for `CCCCc1nc(O)c(-c2nnc(Cc3nc(-c4cccnc4)no3)o2)c(O)c1-c1c(OC)cccc1OC` [Example 101, 6-butyl-5-(2,6-dimethoxyphenyl)-3-(5-{[3-(pyridin-3-yl)-1,2,4-oxadiazol-5-yl]methyl}-1,3,4-oxadiazol-2-yl)pyridine-2,4-diol] is 0.01 to 10 nM; for `CCCCc1nc(O)c(-c2nnc(Cc3cnn(C)c3)o2)c(O)c1-c1c(OC)cccc1OC` [Example 102, 6-butyl-5-(2,6-dimethoxyphenyl)-3-{5-[(1-methyl-1H-pyrazol-4-yl)methyl]-1,3,4-oxadiazol-2-yl}pyridine-2,4-diol] it is 100 to 300 nM; for `CCCCc1nc(O)c(-c2nnc(Cc3ccc(Cl)cc3F)o2)c(O)c1-c1c(OC)cccc1OC` [Example 103, 6-butyl-3-{5-[(4-chloro-2-fluorophenyl)methyl]-1,3,4-oxadiazol-2-yl}-5-(2,6-dimethoxyphenyl) pyridine-2,4-diol] it is 0.01 to 10 nM.
Same read-out and setting: then `CCCCc1nc(O)c(-c2nnc(Cc3nc(-c4ccncc4)no3)o2)c(O)c1-c1c(OC)cccc1OC` [Example 104, 6-butyl-5-(2,6-dimethoxyphenyl)-3-(5-{[3-(pyridin-4-yl)-1,2,4-oxadiazol-5-yl]methyl}-1,3,4-oxadiazol-2-yl)pyridine-2,4-diol], with 0.01 to 10 nM; and `CCCCc1nc(O)c(-c2nnc(CN3CCCC3=O)o2)c(O)c1-c1c(OC)cccc1OC` [Example 105, 1-({5-[6-butyl-5-(2,6-dimethoxyphenyl)-2,4-dihydroxypyridin-3-yl]-1,3,4-oxadiazol-2-yl}methyl) pyrrolidin-2-one], with 0.01 to 10 nM; and `CCOCc1nc(O)c(-c2nnc(Cc3csc(C)n3)o2)c(O)c1-c1c(OC)cccc1OC` [Example 106, 5-(2,6-dimethoxyphenyl)-6-(ethoxymethyl)-3-{5-[(2-methyl-1,3-thiazol-4-yl)methyl]-1,3,4-oxadiazol-2-yl}pyridine-2,4-diol], with 0.01 to 10 nM.
Consider `CCOCc1nc(O)c(-c2nnc(Cc3noc(-c4ccccn4)n3)o2)c(O)c1-c1c(OC)cccc1OC` [Example 107, 5-(2,6-dimethoxyphenyl)-6-(ethoxymethyl)-3-(5-{[5-(pyridin-2-yl)-1,2,4-oxadiazol-3-yl]methyl}-1,3,4-oxadiazol-2-yl)pyridine-2,4-diol], for which the EC50 under setting [1] lay within 0.01 to 10 nM.
Still for that read-out and setting: the figure for `CCCCc1nc(O)c(-c2nnc(Cc3nc(Cc4ccccc4)no3)o2)c(O)c1-c1c(OC)cccc1OC` [Example 108, 3-{5-[(3-benzyl-1,2,4-oxadiazol-5-yl)methyl]-1,3,4-oxadiazol-2-yl}-6-butyl-5-(2,6-dimethoxyphenyl) pyridine-2,4-diol] is 0.01 to 10 nM; for `CCCCc1nc(O)c(-c2nnc(Cc3nc(C4CC4)no3)o2)c(O)c1-c1c(OC)cccc1OC` [Example 109, 6-butyl-3-{5-[(3-cyclopropyl-1,2,4-oxadiazol-5-yl)methyl]-1,3,4-oxadiazol-2-yl}-5-(2,6-dimethoxyphenyl) pyridine-2,4-diol] it is 0.01 to 10 nM.
Same read-out and setting: then `CCOCc1[nH]c(=O)c(-c2nnc(Cc3ccc(Cl)nc3)o2)c(O)c1-c1c(OC)cccc1OC` [Example 110, 3-{5-[(6-chloropyridin-3-yl)methyl]-1,3,4-oxadiazol-2-yl}-5-(2,6-dimethoxyphenyl)-6-(ethoxymethyl) pyridine-2,4-diol], with 0.01 to 10 nM; and `CCCCc1nc(O)c(-c2nnc(Cc3nc(-c4ccccc4)no3)o2)c(O)c1-c1c(OC)cccc1OC` [Example 111, 6-butyl-5-(2,6-dimethoxyphenyl)-3-{5-[(3-phenyl-1,2,4-oxadiazol-5-yl)methyl]-1,3,4-oxadiazol-2-yl}pyridine-2,4-diol], with 0.01 to 10 nM; and `CCOCc1nc(O)c(-c2nnc(CN3CCCC3=O)o2)c(O)c1-c1c(OC)cccc1OC` [Example 112, 1-({5-[5-(2,6-dimethoxyphenyl)-6-(ethoxymethyl)-2,4-dihydroxypyridin-3-yl]-1,3,4-oxadiazol-2-yl}methyl) pyrrolidin-2-one], with 0.01 to 10 nM.
The same measure, in the same setting: then `CCCCc1nc(O)c(-c2nnc(CN3C(=O)CNC3=O)o2)c(O)c1-c1c(OC)cccc1OC` [Example 113, 3-({5-[6-butyl-5-(2,6-dimethoxyphenyl)-2,4-dihydroxypyridin-3-yl]-1,3,4-oxadiazol-2-yl}methyl) imidazolidine-2,4-dione], with 10 to 100 nM; and `CCCCc1nc(O)c(-c2nnc(Cn3ccccc3=O)o2)c(O)c1-c1c(OC)cccc1OC` [Example 114, 1-({5-[6-butyl-5-(2,6-dimethoxyphenyl)-2,4-dihydroxypyridin-3-yl]-1,3,4-oxadiazol-2-yl}methyl)-1,2-dihydropyridin-2-one], with 0.01 to 10 nM; and `CCCCc1nc(O)c(-c2nnc(Cn3ccnc3)o2)c(O)c1-c1c(OC)cccc1OC` [Example 115, 6-butyl-5-(2,6-dimethoxyphenyl)-3-[5-(1H-imidazol-1-ylmethyl)-1,3,4-oxadiazol-2-yl]pyridine-2,4-diol], with 10 to 100 nM.
Compound `CCCCc1nc(O)c(-c2nnc(CN3CCOC3=O)o2)c(O)c1-c1c(OC)cccc1OC` [Example 116, 3-({5-[6-butyl-5-(2,6-dimethoxyphenyl)-2,4-dihydroxypyridin-3-yl]-1,3,4-oxadiazol-2-yl}methyl)-1,3-oxazolidin-2-one] registered an EC50 (hAPJ cAMP EC50 Potency range (nM)) of 0.01 to 10 nM.
As for `CCCCc1nc(O)c(-c2nnc(CN3CCOCC3=O)o2)c(O)c1-c1c(OC)cccc1OC` [Example 117, 4-({5-[6-butyl-5-(2,6-dimethoxyphenyl)-2,4-dihydroxypyridin-3-yl]-1,3,4-oxadiazol-2-yl}methyl) morpholin-3-one], the EC50 under setting [1] fell in the range of 0.01 to 10 nM.

Usually EC50 stands for the midpoint of the concentration-response curve.
